Measured values published in US9676798B2, “Cationic oligonucleotides, automated methods for preparing same and their uses” (CENTRE NATIONAL DE LA RECHERCHE SCIENTIFIQUE (CNRS), priority 2005, dated 2017).

System: Hela cells
Assay: Penetration of cationic oligonucleotides into cells (fluorescence microscopy, propidium iodide)
Format: cell-based
Conditions: for Cell fluorescence after incubation (penetration into cells): 2 μM, four hours, serum-free MEM, no carrier
Protocol: Hela cells, grown in 10% (v/v) fetal calf serum containing MEM medium, were plated at 50-60×10^3 cells/well into 4-well chambered borosilicate Lab-Tek dishes one day prior to the experiment. Complete medium was replaced by 0.5 ml serum-free MEM medium. A 5′-cationic fluorescein-conjugated oligonucleotide F—S18N19 (where N19 is TCGAAGTACTCAGCGTAAG (SEQ ID NO:7)) formulation was prepared in sterile PBS. It was added to the cells to a final concentration of 2 μM. Four hours later, the medium was replaced by 1 ml of fresh serum-containing medium. A first picture was taken with a Zeiss axiovert 25 fluorescence microscope, equipped with a FITC filter (FIG. 14A, left). […] After 24 h, the medium was replaced with 1 ml of phenol red-free MEM medium. Propidium iodide (1 mM in water) was added to a final concentration of 10 μM.

| Substance | Cell fluorescence after incubation (penetration into cells) | Propidium iodide exclusion and retained fluorescence (after 24 h, propidium iodide 10 μM) |
| --- | --- | --- |
| F—N19: control fluorescein oligonucleotide without spermine, N19 is TCGAAGTACTCAGCGTAAG (5' fluorescein conjugate, no spermine, further chemistry not given here) [reference compound] | no fluorescence | – |
| F—S18N19: 5′-cationic fluorescein-conjugated oligonucleotide, N19 is TCGAAGTACTCAGCGTAAG, 18 spermine residues (5' fluorescein and 18 spermine residues attached, backbone chemistry not given here) | All cells became fluorescent | majority of propidiumless healthy cells that were still fluorescent |
